Test results taken from ChEMBL document CHEMBL1201862, “PubChem BioAssay data set” (2004).
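Cells were grown in 96-well plates and exposed to each compound for 48 hours at five concentrations; endpoints were interpolated linearly between bracketing concentrations, or set to the highest concentration if not reached. The concentration for 50% growth inhibition is given as GI50.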 Activity calls are given as the source filed them. No stated cut-off is given here; in the data, active = GI50 up to about 1.1 µM and inactive = higher.

Legend:
Assay in all cases: DTP human tumour cell line panel, 48 h
A549 = tested on: A549
CAKI-1 = tested on: CAKI-1
CCRF-CEM = tested on: CCRF-CEM
COLO 205 = tested on: COLO 205
HOP-62 = tested on: HOP-62
HT-29 = tested on: HT-29
K562 = tested on: K562
KM12 = tested on: KM12
MDA-MB-435 = tested on: MDA-MB-435
MDA-N = tested on: MDA-N
NCI-H23 = tested on: NCI-H23
NCI-H460 = tested on: NCI-H460
PC-3 = tested on: PC-3
SF-268 = tested on: SF-268
SF-295 = tested on: SF-295
SK-MEL-28 = tested on: SK-MEL-28
SNB-75 = tested on: SNB-75
SR = tested on: SR
TK-10 = tested on: TK-10
UACC-257 = tested on: UACC-257

Measured: GI50

CC1(C)OCC(C2OC(C)(C)OC2[C@H]2O[C@@]3(O)[C@H]4[C@H](C=CC[C@@H]42)[C@@H](OCc2ccccc2)[C@H](OCc2ccccc2)[C@H]3OCc2ccccc2)O1 (some centres undefined)
inactive: A549 24.8 µM | CAKI-1 79.1 µM | CCRF-CEM 8.63 µM | COLO 205 > 100 µM | HOP-62 > 100 µM | HT-29 17.9 µM | K562 23.9 µM | KM12 47.4 µM | MDA-MB-435 31.7 µM | MDA-N 17.9 µM | NCI-H23 28.4 µM | NCI-H460 17.9 µM | PC-3 31 µM | SF-268 70 µM | SF-295 > 100 µM | SK-MEL-28 > 100 µM | SNB-75 27.9 µM | SR 11 µM | TK-10 32.4 µM | UACC-257 18.8 µM

C[N+](C)([O-])CCCNc1ccnc2cccc([N+](=O)[O-])c12
inactive: A549 47.4 µM | CAKI-1 44.1 µM | CCRF-CEM 31.6 µM | COLO 205 20.7 µM | HOP-62 83 µM | HT-29 32.9 µM | K562 38.5 µM | KM12 33 µM | MDA-MB-435 46.2 µM | MDA-N 30.6 µM | NCI-H23 34.6 µM | NCI-H460 15.5 µM | PC-3 45.8 µM | SF-268 27 µM | SF-295 92.7 µM | SK-MEL-28 72.6 µM | SNB-75 39.2 µM | SR 34.2 µM | TK-10 24.9 µM | UACC-257 45.8 µM

CSC1(C(=O)O)C2CCC3C2CCC31 (centres undefined)
inactive: A549 > 100 µM | CAKI-1 > 100 µM | CCRF-CEM 52.6 µM | COLO 205 > 100 µM | HOP-62 > 100 µM | HT-29 > 100 µM | K562 73.3 µM | KM12 > 100 µM | MDA-MB-435 > 100 µM | MDA-N > 100 µM | NCI-H23 > 100 µM | NCI-H460 62.1 µM | PC-3 > 100 µM | SF-268 > 100 µM | SF-295 > 100 µM | SK-MEL-28 > 100 µM | SNB-75 > 100 µM | SR > 100 µM | TK-10 > 100 µM | UACC-257 > 100 µM

CCCN1C(=O)CN(S(=O)(=O)c2ccc(Cl)cc2)C1=O
inactive: A549 > 100 µM | CAKI-1 > 100 µM | CCRF-CEM > 100 µM | COLO 205 > 100 µM | HOP-62 > 100 µM | HT-29 > 100 µM | K562 > 100 µM | KM12 > 100 µM | MDA-MB-435 > 100 µM | MDA-N > 100 µM | NCI-H23 > 100 µM | NCI-H460 > 100 µM | PC-3 > 100 µM | SF-268 > 100 µM | SF-295 > 100 µM | SK-MEL-28 > 100 µM | SNB-75 > 100 µM | SR 71 µM | TK-10 > 100 µM | UACC-257 > 100 µM

[N-]=[N+]=Nc1c([N+](=O)[O-])c(=O)n2c3c(cccc13)CCC2
inactive: A549 35.9 µM | CAKI-1 13.2 µM | CCRF-CEM 1.97 µM | COLO 205 6.28 µM | HOP-62 > 100 µM | HT-29 15 µM | K562 1.75 µM | KM12 17 µM | MDA-MB-435 17.3 µM | MDA-N 14.4 µM | NCI-H23 16.1 µM | NCI-H460 17.8 µM | PC-3 16.9 µM | SF-268 13.6 µM | SF-295 > 65.5 µM | SK-MEL-28 5.62 µM | SNB-75 19.4 µM | SR 2.27 µM | TK-10 20 µM | UACC-257 8.15 µM

O=c1c2cc(I)ccc2nc(SCc2n[nH]c(=S)o2)n1Cc1ccccc1
inactive: A549 20.4 µM | CAKI-1 6.25 µM | CCRF-CEM 18.4 µM | COLO 205 10.6 µM | HOP-62 19.1 µM | HT-29 22.3 µM | K562 14.4 µM | KM12 16.9 µM | MDA-MB-435 19.3 µM | MDA-N 17.3 µM | NCI-H23 16.3 µM | NCI-H460 19.1 µM | PC-3 15.7 µM | SF-268 17.5 µM | SF-295 17.3 µM | SK-MEL-28 17.5 µM | SNB-75 4.78 µM | SR 20.5 µM | TK-10 21 µM | UACC-257 18.1 µM

O=S1(=O)CCN(Cc2ccccc2)/C1=N\S(=O)(=O)c1ccc(Cl)cc1
inactive: A549 65.3 µM | CAKI-1 19.1 µM | CCRF-CEM 24.9 µM | COLO 205 19.4 µM | HOP-62 65.2 µM | HT-29 17.9 µM | K562 35.6 µM | KM12 27.4 µM | MDA-MB-435 19.1 µM | MDA-N 18.2 µM | NCI-H23 18.9 µM | NCI-H460 22.3 µM | PC-3 18 µM | SF-268 16.6 µM | SF-295 48.2 µM | SK-MEL-28 18.3 µM | SNB-75 21.2 µM | SR 24.2 µM | TK-10 17 µM | UACC-257 20.7 µM

COC(=O)c1oc([N+](=O)[O-])c(Cl)c1Cl
inactive: A549 8.51 µM | CAKI-1 2.44 µM | CCRF-CEM 2.21 µM | COLO 205 4.12 µM | HOP-62 8.71 µM | HT-29 16.5 µM | K562 2.56 µM | KM12 5.83 µM | MDA-MB-435 7.8 µM | MDA-N 7.98 µM | NCI-H23 8.73 µM | NCI-H460 17.2 µM | PC-3 8.34 µM | SF-268 8.28 µM | SF-295 11.8 µM | SK-MEL-28 8.53 µM | SNB-75 7.78 µM | SR 2.08 µM | TK-10 7.36 µM | UACC-257 7.89 µM

COC(=O)C1C(OC(=O)C(Cl)(c2ccccc2)c2ccccc2)CC2CCC1N2C (centres undefined)
inactive: A549 > 100 µM | CAKI-1 94.6 µM | CCRF-CEM > 100 µM | COLO 205 > 100 µM | HOP-62 > 100 µM | HT-29 > 100 µM | K562 > 100 µM | KM12 > 100 µM | MDA-MB-435 > 100 µM | MDA-N > 100 µM | NCI-H23 > 100 µM | PC-3 > 100 µM | SF-268 > 100 µM | SF-295 > 100 µM | SK-MEL-28 > 100 µM | SNB-75 > 100 µM | SR > 100 µM | TK-10 > 100 µM | UACC-257 > 100 µM

Cn1c(N/N=C/c2ccc(Cl)cc2)nc(-c2ccc(Cl)cc2)c(C#N)c1=O
inactive: A549 17.8 µM | CAKI-1 47 µM | CCRF-CEM 25.4 µM | COLO 205 47 µM | HOP-62 12 µM | HT-29 41.1 µM | K562 > 100 µM | KM12 22.6 µM | MDA-MB-435 29.9 µM | MDA-N 53.2 µM | NCI-H23 18.7 µM | NCI-H460 27 µM | PC-3 26.8 µM | SF-268 35.4 µM | SF-295 17.5 µM | SK-MEL-28 37.8 µM | SNB-75 25.3 µM | SR 2.26 µM | TK-10 29 µM | UACC-257 72.3 µM

CSc1c(C(=O)Nc2ccc(Cl)cc2)c(N)nn1-c1ccccc1
inactive: A549 > 24.5 µM | CAKI-1 > 100 µM | CCRF-CEM > 100 µM | COLO 205 > 100 µM | HOP-62 80 µM | HT-29 > 100 µM | K562 > 100 µM | KM12 > 100 µM | MDA-MB-435 > 100 µM | MDA-N > 100 µM | NCI-H23 > 100 µM | NCI-H460 > 59.2 µM | PC-3 > 100 µM | SF-268 > 100 µM | SF-295 > 100 µM | SK-MEL-28 > 100 µM | SNB-75 21.6 µM | SR > 100 µM | TK-10 > 38.9 µM | UACC-257 > 100 µM

C=CCOC(=O)NC1C(OC(C)[C@@H](NC(=O)OCc2ccccc2)C(=O)OC(C)(C)C)OC(COC(C)=O)C(OC(C)=O)C1OC(C)=O (some centres undefined)
inactive: A549 > 100 µM | CAKI-1 > 100 µM | CCRF-CEM 53.3 µM | COLO 205 > 100 µM | HOP-62 > 100 µM | HT-29 > 100 µM | K562 72.9 µM | KM12 > 100 µM | MDA-MB-435 39.4 µM | MDA-N > 100 µM | NCI-H23 > 100 µM | NCI-H460 > 100 µM | PC-3 47 µM | SF-268 > 100 µM | SF-295 > 100 µM | SK-MEL-28 > 100 µM | SNB-75 2.85 µM | SR 79.8 µM | TK-10 > 100 µM | UACC-257 > 100 µM

CC1CN(CCO)CC(C)O1 (centres undefined)
inactive: A549 > 100 µM | CAKI-1 > 100 µM | CCRF-CEM > 100 µM | COLO 205 > 100 µM | HOP-62 > 100 µM | HT-29 > 100 µM | K562 > 100 µM | KM12 > 100 µM | MDA-MB-435 > 100 µM | MDA-N > 100 µM | NCI-H23 > 100 µM | NCI-H460 > 100 µM | PC-3 > 100 µM | SF-268 > 100 µM | SF-295 > 100 µM | SK-MEL-28 > 100 µM | SNB-75 > 100 µM | SR > 100 µM | TK-10 > 100 µM | UACC-257 > 100 µM

COc1cccc2c1OC1(C=C2)Oc2ccccc2C(=O)N1C (centres undefined)
inactive: A549 41.6 µM | CAKI-1 8.18 µM | CCRF-CEM 12.2 µM | COLO 205 31.7 µM | HOP-62 51.5 µM | HT-29 28.5 µM | K562 17.5 µM | KM12 19.1 µM | MDA-MB-435 21.6 µM | MDA-N 15 µM | NCI-H23 31.2 µM | NCI-H460 32.4 µM | PC-3 27.2 µM | SF-268 34.3 µM | SF-295 22.8 µM | SK-MEL-28 59 µM | SNB-75 16.3 µM | SR 3.55 µM | TK-10 24.9 µM | UACC-257 44.8 µM
